Test results taken from patent US9833497B2, “Human originated EGF domain proteins and use of the same” (CHENGDU SOURCEBIO LIMITED-LIABILITY COMPANY, priority 2013, dated 2017).

Tests used:
Type in all cases: cell-based
[1] = tested on: E. coli DH5α; assay: Antibacterial activity: MIC and growth curve against E. coli DH5α in 96-well plate; details: minimal inhibitory concentration against E. coli DH5α; 96-well plate, 5×10^5 CFU/mL, 37° C., judged after 8 h
Summary of the method: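 Log-phase DH5α (OD600 about 0.5, 37° C, 185 rpm in LB) was pelleted, resuspended in fresh LB and seeded at 5×10^5 CFU/mL with recombinant protein at 50, 25 and 12.5 μg/mL (two-fold series), in triplicate. Plates were shaken at 175 rpm, 37° C, and OD600 was read every 30 min. MIC was the lowest concentration with no growth.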

[2] = tested on: E. coli BL21; assay: MIC against Gram-negative bacteria: E. coli BL21; details: for MIC against E. coli BL21 / MIC (μg/mL) E. coli BL21 / MIC E. coli BL21: 5×10^5 CFU/mL
Summary of the method: (§1)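 Read-out is absence of bacterial growth, with MIC set at the lowest recombinant protein concentration achieving it. Bacteria, pre-grown in LB to McFarland 0.5 and resuspended, were exposed at 5×10^5 CFU/mL to two-fold diluted human EGF domain proteins in triplicate at 37° C, 175 rpm.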

[3] = tested on: Pseudomonas aeruginosa; assay: MIC against Gram-negative bacteria: Pseudomonas aeruginosa; details: for MIC against P. aeruginosa / MIC (μg/mL) P. aeruginosa / MIC P. aeruginosa: 5×10^5 CFU/mL
Summary of the method: as §1

[4] = tested on: Klebsiella pneumonia; assay: MIC against Gram-negative bacteria: Klebsiella pneumonia; details: for MIC against K. pneumonia / MIC (μg/mL) K. pneumonia / MIC K. pneumonia: 5×10^5 CFU/mL
Summary of the method: as §1

[5] = tested on: Enterobacter cloacae; assay: MIC against Gram-negative bacteria: Enterobacter cloacae; details: for MIC against E. cloacae / MIC (μg/mL) E. cloacae / MIC E. cloacae: 5×10^5 CFU/mL
Summary of the method: as §1

[6] = tested on: Aeromonas hydrophila; assay: MIC against Gram-negative bacteria: Aeromonas hydrophila; details: for MIC against A. hydrophila / MIC (μg/mL) A. hydrophila / MIC A. hydrophila: 5×10^5 CFU/mL
Summary of the method: as §1

[7] = tested on: Citrobacter diversus; assay: MIC against Gram-negative bacteria: Citrobacter diversus; details: for MIC against C. diversus / MIC (μg/mL) C. diversus / MIC C. diversus: 5×10^5 CFU/mL
Summary of the method: as §1

[8] = tested on: Moraxella catarrhalis; assay: MIC against Gram-negative bacteria: Moraxella catarrhalis; details: for MIC against M. catarrhalis / MIC (μg/mL) M. catarrhalis / MIC M. catarrhalis: 5×10^5 CFU/mL
Summary of the method: as §1

[9] = tested on: Proteus mirabilis; assay: MIC against Gram-negative bacteria: Proteus mirabilis; details: for MIC against P. mirabilis / MIC (μg/mL) P. mirabilis / MIC P. mirabilis: 5×10^5 CFU/mL
Summary of the method: as §1

[10] = tested on: Proteus vulgaris; assay: MIC against Gram-negative bacteria: Proteus vulgaris; details: for MIC against P. vulgaris / MIC (μg/mL) P. vulgaris / MIC P. vulgaris: 5×10^5 CFU/mL
Summary of the method: as §1

[11] = tested on: Serratia marcescens; assay: MIC against Gram-negative bacteria: Serratia marcescens; details: for MIC against S. marcescens / MIC (μg/mL) S. marcescens / MIC S. marcescens: 5×10^5 CFU/mL
Summary of the method: as §1

[12] = E. coli BL21, 10 h cultivation at 37° C.
[13] = P. aeruginosa, 10 h cultivation at 37° C.
[14] = K. pneumonia, 10 h cultivation at 37° C.
[15] = E. cloacae, 10 h cultivation at 37° C.
[16] = A. hydrophila, 10 h cultivation at 37° C.
[17] = C. diversus, 10 h cultivation at 37° C.
[18] = M. catarrhalis, 10 h cultivation at 37° C.
[19] = P. mirabilis, 10 h cultivation at 37° C.
[20] = P. vulgaris, 10 h cultivation at 37° C.
[21] = S. marcescens, 10 h cultivation at 37° C.

Substance	MIC [1] [µg/mL]	MIC (μg/mL) E. coli BL21 [2, 12] [µg/mL]	MIC (μg/mL) P. aeruginosa [3, 13] [µg/mL]	MIC (μg/mL) K. pneumonia [4, 14] [µg/mL]	MIC (μg/mL) E. cloacae [5, 15] [µg/mL]	MIC (μg/mL) A. hydrophila [6, 16] [µg/mL]	MIC (μg/mL) C. diversus [7, 17] [µg/mL]	MIC (μg/mL) M. catarrhalis [8, 18] [µg/mL]	MIC (μg/mL) P. mirabilis [9, 19] [µg/mL]	MIC (μg/mL) P. vulgaris [10, 20] [µg/mL]	MIC (μg/mL) S. marcescens [11, 21] [µg/mL]	MIC E. coli BL21 ([2]; 96-well plate, 37° C., 10 h) [µg/mL]	MIC P. aeruginosa ([3]; 96-well plate, 37° C., 10 h) [µg/mL]	MIC K. pneumonia ([4]; 96-well plate, 37° C., 10 h) [µg/mL]	MIC E. cloacae ([5]; 96-well plate, 37° C., 10 h) [µg/mL]	MIC A. hydrophila ([6]; 96-well plate, 37° C., 10 h) [µg/mL]	MIC C. diversus ([7]; 96-well plate, 37° C., 10 h) [µg/mL]	MIC M. catarrhalis ([8]; 96-well plate, 37° C., 10 h) [µg/mL]	MIC P. mirabilis ([9]; 96-well plate, 37° C., 10 h) [µg/mL]	MIC P. vulgaris ([10]; 96-well plate, 37° C., 10 h) [µg/mL]	also measured
PRT1249 (NQCACNSSPCEQQSGRCQCRERTFGARCD; listed as Homo sapiens)	12.5	–	–	–	–	–	–	–	–	–	–	–	–	–	–	–	–	–	–	–	MIC against E. coli BL21 ([2]; E. coli BL21, 96-well plate, 37° C., 10 h): 12.5 µg/mL; MIC against P. aeruginosa ([3]; Pseudomonas aeruginosa, 96-well plate, 37° C., 10 h): 50 µg/mL; MIC against K. pneumonia ([4]; Klebsiella pneumonia, 96-well plate, 37° C., 10 h): 12.5 µg/mL; MIC against E. cloacae ([5]; Enterobacter cloacae, 96-well plate, 37° C., 10 h): 50 µg/mL; MIC against A. hydrophila ([6]; Aeromonas hydrophila, 96-well plate, 37° C., 10 h): 12.5 µg/mL; MIC against C. diversus ([7]; Citrobacter diversus, 96-well plate, 37° C., 10 h): 50 µg/mL; MIC against M. catarrhalis ([8]; Moraxella catarrhalis, 96-well plate, 37° C., 10 h): 12.5 µg/mL; MIC against P. mirabilis ([9]; Proteus mirabilis, 96-well plate, 37° C., 10 h): 25 µg/mL; MIC against P. vulgaris ([10]; Proteus vulgaris, 96-well plate, 37° C., 10 h): 50 µg/mL; MIC against S. marcescens ([11]; Serratia marcescens, 96-well plate, 37° C., 10 h): 25 µg/mL
PRT250 (DVDECRTSITLCSHHCFNTAGSFTCGCPHDLVLGVDGRTCM; listed as Homo sapiens)	12.5	12.5	12.5	12.5	12.5	25	12.5	25	12.5	25	12.5	–	–	–	–	–	–	–	–	–	–
PRT520 (CRCNAGGSFSEVCHSQTGQCECRANVQGQRCDKCKAGTFGLQSARGCVP; listed as Homo sapiens)	25	–	–	–	–	–	–	–	–	–	–	–	–	–	–	–	–	–	–	–	MIC against E. coli BL21 ([2]; 96-well plate, 37° C., 10 h): 12.5 µg/mL; MIC against P. aeruginosa ([3]; 96-well plate, 37° C., 10 h): 25 µg/mL; MIC against K. pneumonia ([4]; 96-well plate, 37° C., 10 h): 12.5 µg/mL; MIC against E. cloacae ([5]; 96-well plate, 37° C., 10 h): 25 µg/mL; MIC against A. hydrophila ([6]; 96-well plate, 37° C., 10 h): 12.5 µg/mL; MIC against C. diversus ([7]; 96-well plate, 37° C., 10 h): 25 µg/mL; MIC against M. catarrhalis ([8]; 96-well plate, 37° C., 10 h): 50 µg/mL; MIC against P. mirabilis ([9]; 96-well plate, 37° C., 10 h): 25 µg/mL; MIC against P. vulgaris ([10]; 96-well plate, 37° C., 10 h): 12.5 µg/mL; MIC against S. marcescens ([11]; 96-well plate, 37° C., 10 h): 25 µg/mL
PRT784 (FGKNCAGICTCTNNGTCNPIDRSCQCYPGWIGSDCS; listed as Homo sapiens)	50	25	12.5	50	12.5	50	12.5	50	12.5	50	12.5	–	–	–	–	–	–	–	–	–	–
PRT1443 (NHMPCPENLNGYCIHGKCEFIYSTQKASCRCESGYTGQHCE; listed as Homo sapiens)	25	–	–	–	–	–	–	–	–	–	–	–	–	–	–	–	–	–	–	–	MIC against E. coli BL21 [2, 12]: 50 µg/mL; MIC against P. aeruginosa ([3]; Pseudomonas aeruginosa, 10 h cultivation at 37° C.): 25 µg/mL; MIC against K. pneumonia ([4]; Klebsiella pneumonia, 10 h cultivation at 37° C.): 12.5 µg/mL; MIC against E. cloacae ([5]; Enterobacter cloacae, 10 h cultivation at 37° C.): 25 µg/mL; MIC against A. hydrophila ([6]; Aeromonas hydrophila, 10 h cultivation at 37° C.): 50 µg/mL; MIC against C. diversus ([7]; Citrobacter diversus, 10 h cultivation at 37° C.): 25 µg/mL; MIC against M. catarrhalis ([8]; Moraxella catarrhalis, 10 h cultivation at 37° C.): 25 µg/mL; MIC against P. mirabilis ([9]; Proteus mirabilis, 10 h cultivation at 37° C.): 12.5 µg/mL; MIC against P. vulgaris ([10]; Proteus vulgaris, 10 h cultivation at 37° C.): 25 µg/mL; MIC against S. marcescens ([11]; Serratia marcescens, 10 h cultivation at 37° C.): 50 µg/mL
PRT909 (LVDECSPSPCQNGATCTDYLGGYSCKCVAGYHGVNCS; listed as Homo sapiens)	50	–	–	–	–	–	–	–	–	–	–	–	–	–	–	–	–	–	–	–	MIC [2, 12]: 25 µg/mL; MIC [3, 13]: 12.5 µg/mL; MIC [4, 14]: 50 µg/mL; MIC [5, 15]: 25 µg/mL; MIC [6, 16]: 12.5 µg/mL; MIC [7, 17]: 50 µg/mL; MIC [8, 18]: 25 µg/mL; MIC [9, 19]: 12.5 µg/mL; MIC [10, 20]: 50 µg/mL; MIC [11, 21]: 12.5 µg/mL
PRT721 (DIDECTEMPFVCSQKCENVIGSYICKCAPGYLREPDGKTCR; listed as Homo sapiens)	25	–	–	–	–	–	–	–	–	–	–	12.5	25	50	25	12.5	25	50	12.5	12.5	MIC S. marcescens ([11]; 96-well plate, 37° C., 10 h): 50 µg/mL
PRT806 (FGFQCSQHCDCHNGGQCSPTTGACECEPGYKGPRCQ; listed as Homo sapiens)	12.5	25	12.5	12.5	12.5	12.5	12.5	25	12.5	25	25	–	–	–	–	–	–	–	–	–	–
PRT719 (CNNPCEQFNGGCSHICAPGPNGAECQCPHEGNWYLANNRKHCI; listed as Homo sapiens)	50	–	–	–	–	–	–	–	–	–	–	12.5	50	12.5	50	12.5	50	50	50	50	MIC S. marcescens ([11]; 96-well plate, 37° C., 10 h): 50 µg/mL
PRT663 (DVNECDDLNGPAVLCVHGYCENTEGSYRCHCSPGYVAEAGPPHCT; listed as Homo sapiens)	100	–	–	–	–	–	–	–	–	–	–	25	50	25	12.5	25	50	12.5	25	50	MIC S. marcescens ([11]; 96-well plate, 37° C., 10 h): 12.5 µg/mL
